Among the data in ChEMBL document CHEMBL3352214, “Studies on indolizines. Evaluation of their biological properties as microtubule-interacting agents and as melanoma targeting compounds” (Eur J Med Chem, 2015) are inhibition of growth, inhibition and IC50 values, retold here.

A short description of test [1]: Growth inhibition of human HCT116 cells at 10^-5 M after 48 hrs by SRB assay. The class given is functional. The conditions noted are these: HCT-116, 48 h, read-out: GI.
A short description of test [2]: Growth inhibition of human MOLT4 cells at 10^-5 M after 48 hrs by SRB assay. It counts as functional. The conditions noted are these: MOLT-4, 48 h, read-out: GI.
Test [3] is described as follows: Growth inhibition of human HOP92 cells at 10^-5 M after 48 hrs by SRB assay. The class given is functional. The conditions noted are these: HOP-92, 48 h, read-out: GI.
Test [4] in a line: Growth inhibition of human EKVX cells at 10^-5 M after 48 hrs by SRB assay. It counts as functional. The settings on record: read-out: GI. On the technique in general: The SRB assay estimates cell density from bound dye.
In another test the test system is CAKI-1. Kind of test: Growth inhibition of human Caki1 cells at 10^-5 M after 48 hrs by SRB assay. The conditions noted are these: CAKI-1, 48 h, read-out: GI. It counts as functional.
Test [5] in a line: Growth inhibition of human PC3 cells at 10^-5 M after 48 hrs by SRB assay. The class given is functional. The conditions noted are these: PC-3, 48 h, read-out: GI.
In the next test the test system is T47D. Kind of test: Growth inhibition of human T47D cells at 10^-5 M after 48 hrs by SRB assay. The class given is functional. The conditions noted are these: Homo sapiens, T47D, 48 h; read-out: GI.
Another test relates to A498. Kind of test: Growth inhibition of human A498 cells at 10^-5 M after 48 hrs by SRB assay. It counts as functional. The conditions noted are these: A498, 48 h, read-out: GI.
Test [6] can be described thus: Growth inhibition of human SF295 cells at 10^-5 M after 48 hrs by SRB assay. The class given is functional. The settings on record: SF-295, 48 h, read-out: GI.
In a further test the test system is Malme-3M. Kind of test: Growth inhibition of human MALME-3M cells at 10^-5 M after 48 hrs by SRB assay. The conditions noted are these: read-out: GI. It counts as functional.
The next test concerns SNB-75. Kind of test: Growth inhibition of human SNB75 cells at 10^-5 M after 48 hrs by SRB assay. The class given is functional. The settings on record: SNB-75, 48 h, read-out: GI.
The next test concerns MDA-MB-435. Briefly: Growth inhibition of human MDA-MB-435 cells at 10^-5 M after 48 hrs by SRB assay. The conditions noted are these: MDA-MB-435, 48 h, read-out: GI. It counts as functional.
In another test the test system is HL-60(TB). Briefly: Growth inhibition of human HL-60(TB) cells at 10^-5 M after 48 hrs by SRB assay. It counts as functional. The settings on record: HL-60, 48 h, read-out: GI.
Test [7] is described as follows: Growth inhibition of human HCT15 cells at 10^-5 M after 48 hrs by SRB assay. The class given is functional. The conditions noted are these: HCT-15, 48 h, read-out: GI.
The next test relates to MCF7. Briefly: Growth inhibition of human MCF7 cells at 10^-5 M after 48 hrs by SRB assay. The settings on record: MCF7, 48 h, read-out: GI. The class given is functional.
In another test the test system is NCI-H522. Briefly: Growth inhibition of human NCI-H522 cells at 10^-5 M after 48 hrs by SRB assay. It counts as functional. The conditions noted are these: NCI-H522, 48 h, read-out: GI.
The species named for the next test is Ovis aries. Kind of test: Inhibition of sheep brain tubulin polymerization at 100 uM by fluorescence assay.
Test [8] is described as follows: Inhibition of sheep brain tubulin polymerization by fluorescence assay. More on the design: species or system Ovis aries.

The term inhibition denotes the relative decrease from the control value, in per cent. High values mean strong suppression, low ones little suppression. As for `COC(=O)c1c(C(=O)OC)c2cc(N(C)C)ccn2c1C(=O)c1cc(OC)c(OC)c(OC)c1`, the inhibition of growth at 10 µM was found to be 0% in [1]; 0% in [2]; 11% in test [3]; 0% in [4]; 19% in the test on CAKI-1; 2% in test [5]. Moreover, the inhibition of growth at 10 µM in the test with T47D was determined as 5%; with A498, 18%; in test [6], 11%; in the test with Malme-3M it was 0%; with SNB-75 it was 9%; with MDA-MB-435, 4%. For the same compound, the inhibition of growth at 10 µM was found to be 26% with HL-60(TB), 7% in test [7], 0% with MCF7 and 3% in the test on NCI-H522. For the same compound, the inhibition in the test filed under Ovis aries came to 15%.

For the compound `COC(=O)c1c(C(=O)OC)c2cc(OC)ccn2c1C(=O)c1ccc(OC)cc1`, the inhibition of growth at 10 µM in [1] is 0%; in test [2], 0%; in test [3] it was 0%; in [4], 13%; in the test with CAKI-1, 18%; in [5] it was 19%. Also, the inhibition of growth at 10 µM was determined as 2% in the test on T47D; 7% with A498; 10% in test [6]; 0% in the test with Malme-3M; 0% with SNB-75; 2% with MDA-MB-435. The inhibition of growth at 10 µM with HL-60(TB) was determined as 6%; in test [7], 0%; with MCF7, 0%. Moreover, the inhibition in the test filed under Ovis aries was found to be 34%.

As a reminder, the IC50 is the concentration at which inhibition is half-maximal. Read a high IC50 as weaker potency. Turning to `CCOC(=O)c1c(C(=O)OCC)c2cccc(C)n2c1C(=O)c1cc(OC)c(OC)c(OC)c1`, the IC50 in [8] worked out at 174 µM. Further, the inhibition in the test filed under Ovis aries turned out to be 58%.

As to `COc1cc([C@@H]2c3cc4c(cc3C[C@H]3COC(=O)[C@@H]32)OCO4)cc(OC)c1OC` [DESOXYPODOPHYLLOTOXIN], the IC50 in test [8] worked out at 1.76 µM. The compound also returned an inhibition in the test listed under Ovis aries of 100%.

In test [8], `CCOC(=O)c1c(C(=O)OCC)c2c(C)cc(C)cn2c1C(=O)c1cc(OC)c(OC)c(OC)c1` showed an IC50 of 93.2 µM. Moreover, the inhibition in the test filed under Ovis aries was determined as 58%.

In the case of `CCOC(=O)c1cc(C(=O)c2cc(OC)c(OC)c(OC)c2Br)n2ccc(OC)cc12`, the inhibition of growth at 10 µM in [1] amounted to 31%; in test [2], 60%; in test [3] it was 39%; in [4], 52%; in the test on CAKI-1 it was 51%; in test [5] it was 60%. For the same compound, the inhibition of growth at 10 µM is 36% in the test with T47D; 23% in the test with A498; 38% in test [6]; 0% in the test on Malme-3M; 0% with SNB-75; 10% in the test with MDA-MB-435. In addition, the inhibition of growth at 10 µM in the test on HL-60(TB) was 57%; in test [7], 39%; with MCF7, 7%; in the test on NCI-H522 it was 35%. For the same compound, the IC50 in test [8] was 104 µM. For the same compound, the inhibition in the test listed under Ovis aries stood at 54%.

As to `CCOC(=O)c1cc(C(=O)c2cc(OC)c(OC)c(OC)c2)n2cc(C)ccc12`, the IC50 in test [8] was found to be 33.5 µM. In the test filed under Ovis aries, this compound gave an inhibition of 73%.

With `COC(=O)c1c(C(=O)OC)c2cc(N(C)C)ccn2c1C(=O)c1ccc(OC)c(OC)c1`, the inhibition of growth at 10 µM was 0% in [1]; 0% in test [2]; 18% in test [3]; 0% in test [4]; 10% with CAKI-1; 11% in test [5]. Further, the inhibition of growth at 10 µM in the test with T47D turned out to be 0%; in the test with A498, 27%; in [6] it was 1%; with Malme-3M, 0%; in the test with SNB-75, 1%; in the test on MDA-MB-435 it was 0%. The inhibition of growth at 10 µM worked out at 12% in the test with HL-60(TB), 6% in [7], 0% with MCF7 and 3% with NCI-H522. Moreover, the inhibition in the test listed under Ovis aries stood at 9%.

As to `COC(=O)c1c(C(=O)OC)c2cc(C)ccn2c1C(=O)c1cc(OC)c(OC)c(OC)c1`, the inhibition of growth at 10 µM in test [1] turned out to be 0%; in test [2], 4%; in test [3] it was 5%; in test [4] it was 0%; in the test with CAKI-1 it was 3%; in test [5] it was 1%. Also, the inhibition of growth at 10 µM came out at 3% with T47D; 3% in the test on A498; 0% in test [6]; 8% with Malme-3M; 7% with SNB-75; 0% with MDA-MB-435. For the same compound, the inhibition of growth at 10 µM came to 7% with HL-60(TB), 3% in [7], 0% in the test with MCF7 and 5% in the test on NCI-H522. The compound also gave an inhibition in the test listed under Ovis aries of 2%.

On to `COC(=O)c1c(C(=O)OC)c2c(C)cc(C)cn2c1C(=O)c1ccc(OC)cc1`, for which, in test [8], the midpoint of inhibition, the IC50, lay at 81.2 µM. Further, the inhibition in the test filed under Ovis aries amounted to 61%.

Compound `CCOC(=O)c1cc(C(=O)c2cc(OC)c(OC)c(OC)c2)n2cccc(C)c12` returned an IC50 in test [8] of 98.2 µM. This compound displayed an inhibition in the test filed under Ovis aries of 55%.

In turn, `CCOC(=O)c1c(C(=O)OCC)c2cc(OC)ccn2c1C(=O)c1cc(OC)c(OC)c(OC)c1` showed an IC50 in [8] of 90.4 µM. Also, in the test filed under Ovis aries, the inhibition stood at 57%.

For `CCOC(=O)c1cc(C(=O)c2cc(OC)c(OC)c(OC)c2)n2ccc(OC)cc12`, the inhibition of growth at 10 µM worked out at 18% in [1]; 0% in test [2]; 8% in [3]; 4% in test [4]; 32% with CAKI-1; 31% in test [5]. Also, the inhibition of growth at 10 µM is 5% with T47D; 52% in the test with A498; 32% in [6]; 13% in the test with Malme-3M; 12% in the test with SNB-75; 89% in the test on MDA-MB-435. In addition, the inhibition of growth at 10 µM worked out at 17% with HL-60(TB), 21% in test [7], 37% in the test on MCF7 and 44% in the test on NCI-H522. This compound also came in with an inhibition in the test filed under Ovis aries of 9%.
